The subject of data set [1] is HCT-116. In words: Cytotoxicity against human HCT116 cells assessed as live cells after 48 to 72 hrs by MTT assay. It counts as functional, cell-based. (Tetrazolium assays rely on reduction of a dye to a coloured formazan, in cell work by metabolically active cells.)
The subject of data set [2] is HCT-116. In words: Drug uptake in human HCT116 cells at 1 uM after 30 mins by confocal microscopy. Format: ADME, cell-based. The settings on record: hct-116, 0.5 h.
The subject of a further data set is HeLa. Nature of the data set: Drug uptake in human HeLa cells at 1 uM after 30 mins using Nile Red by confocal microscopy. It counts as ADME, cell-based. The settings on record: 0.5 h.
The test system of data set [3] is HCT-116. In words: Cytotoxicity against human HCT116 cells. It counts as functional, cell-based.

In ChEMBL document CHEMBL3621089, “Fluorophore-tagged pharmacophores for antitumor cytotoxicity: Modified chiral lipidic dialkynylcarbinols for cell imaging” (Bioorg Med Chem Lett, 2015) one finds IC50 and Drug uptake data, which are given here for six compounds.

The term pIC50 denotes −log10 of the IC50, conventionally taken in molar units.

pIC50: −log10 of the molar value.

In the case of `C#CCCCCCCCCCCC#C[C@@H](O)C#C`, the pIC50 in the data set on HCT-116 [1] is 6.43.

For `C#C[C@H](O)C#CCCCCCCCCCCc1cn(CCCCc2ccc3ccc4cccc5ccc2c3c45)nn1`, the negative logarithm of the IC50 (pIC50) in the data set with HCT-116 [1] was 6.05. As for `C#C[C@H](O)C#CCCCCCCCCCCc1cn(-c2cc3ccc(O)cc3oc2=O)nn1`, the Drug uptake entry with HCT-116 [2] is “Active”. In addition, in the data set on HCT-116 [1], the negative-log IC50 (pIC50) is 5.52. Regarding `C#C[C@H](O)C#CCCCCCCCCCCc1cn(CC2=C3C(C)=CC(C)=[N+]3[B-](F)(F)n3c(C)cc(C)c32)nn1`, the Drug uptake entry with HCT-116 [2] and with HeLa was “Active” each time. For the same compound, the negative-log IC50 (pIC50) in the data set with HCT-116 [1] was 5.00. In the case of `C#C[C@H](O)C#CCCCCCCCCCCc1cn(CCCNc2ccc([N+](=O)[O-])c3nonc23)nn1`, the Drug uptake result with HCT-116 [2] was “Active”. Moreover, in the data set with HCT-116 [1], the pIC50 is 5.96. For `C#C[C@@H](O)/C=C/CCCCCCCCCCCCCCC`, the pIC50 with HCT-116 [3] is 7.22; in the data set with HCT-116 [1] it was 7.05.
